Source: patent US20250154105A1, “POLYCYCLIC COMPOUND AND USE THEREOF” (TYK MEDICINES, INC., priority 2021, published 2025)

How the values were obtained:
[1] = Rat pharmacokinetic experiment; type: in vivo; details: po, male SD rats, gavage (p.o.), 10 mg/kg, plasma
From the text: TEST EXAMPLE 3 PHARMACOKINETIC EXPERIMENT OF COMPOUNDS
Pharmacokinetic test of compounds T-32/T-105/T-253/T-272/T-273/T-277 of the present invention.
Experimental Protocol of Rat Pharmacokinetics
• (1) Required animals: healthy adult SD rats, male, 3 rats, 6-8 weeks old; weighing 200-300 g. • (2) Required equipments: analytical balance, animal weight scale, magnetic stirrer, refrigerated centrifuge, single-channel manual pipettor, etc. • (3) Required reagents: EDTA-Na2 anticoagulant, etc. 11.2 g of EDTA-Na2 was weighed and placed in a reagent flask, 100 mL of normal saline was added, and the flask was shook to completely dissolve it. After the preparation was completed, it was divided into 1.5 mL centrifuge tubes with 20 uL each for whole blood sample collection. • (3) About 10 mg of the sample to be tested was accurately weighed, 5% DMSO after conversion was added to dissolve, then 30% PEG400 and 65% (10% Hp-β-CD in PBS) were added for sonication, and vortex-mixed evenly to obtain a solution with a concentration of 1 mg/mL which is freshly prepared before use. • (4) 0.1 mL of sample was taken into a 1.5 mL centrifuge tube and stored at −80° C. for concentration analysis of drug administration solution. • (5) Animals were kept in rat cages, and fasted (not less than 10 h) from the day before the test(but water was allowed). The animals were separately weighed and marked at the tail on the day of the test. Blank blood was collected before administration. The blood was collected from tail vein. • (6) Route of administration: gavage (p.o.); dosage: 10 mg/kg; administration volume: 10 mL/kg. • (7) Operation process: Use the left hand with anti-bite gloves to catch the rat, make it stand upright, stretch the 16th gastric lavage needle from the throat of the mouth, insert the needle when feeling out no obvious resistance, and then inject the drug into the stomach. • (8) 0.2 ml of whole blood was collected from the tested animals and added into EDTA-Na2 anticoagulant tubes before administration and 0.5 h, 1 h, 2 h, 4 h, 6 h, 8 h, 12 h and 24 h after administration respectively. The tubes were reversed up and down for 3-4 times and mixed evenly, centrifuged at 4° C. at 10000 g for 5 min to separate plasma, and stored at −80° C. for testing. The blood was collected from tail vein. • (9) LC-MS/MS method was established to determine the concentration of original drug in plasma, the blood drug concentration-time curve was drawn, and the main pharmacokinetic parameters were calculated by non-compartment model. • (10) Pharmacokinetic parameters of T-32/T-105/T-253/T-272/T-273/T-277 were shown below in Table 2.

[2] = test system: human pleural mesothelioma cells NCI-H226; test: Cell anti-proliferation experiment (CCK8), NCI-H226; type: cell-based
Outline: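 Viability was measured by CCK-8 (3 h, A450) after 3-day treatment with 0.15–333.33 nM compound in 0.1% DMSO medium. Curve-fitted IC50 was based on viability normalised to no-drug and cell-free controls.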

YAP-TEAD = YAP-TEAD inhibitor activity by Nano luciferase method (8xGTiiC-nLuc reporter in 293T cells); type: cell-based; details: Homo sapiens, HEK-293T, 48 hours incubation, read-out: Nano-luciferase detection (IC50)
Outline: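 293T cells transiently transfected with pGL3B-8xGTiiC-nLuc-CMV-fLuc, seeded 2000 cells/well, then treated 48 h at 37 °C with compounds in 1:3.16 dilution series (top 10,000 nM). Nano luciferase signal read after cell lysis; IC50 from percent of 0 nM control.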

Compound | IC50 [2] | IC50 (YAP-TEAD) | further results
CC(C)NC(=O)c1ccc2c(-c3ccc(C(F)(F)F)cc3)cccc2c1 [Control compound 1, reference compound] |  |  | AUC(0-t) [1]: 2180 ng·h/mL; Cmax [1]: 584 ng/mL; MRT last [1]: 2.92 h; Tmax [1]: 2 h
Cc1scc2c(=O)n(-c3ccc(C(F)(F)F)cc3)c3ncc(C(=O)N[C@@H](C)c4ccccn4)cc3c12 [Example T-372] | 1000 to 5000 nM | 1000 to 5000 nM | 
C[C@H](NC(=O)c1ccc2c(c1)c1c(c(=O)n2-c2ccc(C(F)(F)F)cc2)CCCC1F)c1ccccn1 (some centres unmarked) [Example T-302] | ≤ 1000 nM | ≤ 1000 nM | 
C[C@H](NC(=O)c1ccc2c(c1)c1c(c(=O)n2-c2ccc(C(F)(F)F)cc2)CC(F)(F)C1)c1ccccn1 [Example T-294] | ≤ 1000 nM | ≤ 1000 nM | 
Cc1oc(C)c2c1c(=O)n(-c1ccc(C(F)(F)F)cc1)c1ccc(C(=O)N[C@@H](C)c3ccccn3)cc21 [Example T-289] | ≤ 1000 nM | ≤ 1000 nM | 
C[C@H](NC(=O)c1cnc2c(c1)c1cc(C#N)ccc1c(=O)n2-c1ccc(C(F)(F)F)cc1)c1ccccn1 [Example T-410] | ≤ 1000 nM | ≤ 1000 nM | 
C[C@H](NC(=O)c1ccc2c(c1)c1ccc(F)cc1c(=O)n2-c1ccc(C(F)(F)F)cc1)c1ccccn1 [Example T-260] | ≤ 1000 nM | 1000 to 5000 nM | 
CNS(=O)(=O)c1ccc2c(c1)-c1cn(C)nc1CN2c1ccc(C(F)(F)F)cc1 [Example T-19] | ≤ 1000 nM | ≤ 1000 nM | 
C[C@H](NC(=O)c1cnc2c(c1)c1nscc1c(=O)n2-c1ccc(C(F)(F)F)cc1)c1cccc(N)n1 [Example T-409] | ≤ 1000 nM | ≤ 1000 nM | 
COC(=O)c1ccc2c(c1)c1ncn(C)c1c(=O)n2-c1ccc(C(F)(F)F)cc1 [Example T-99] | 1000 to 5000 nM | 1000 to 5000 nM | 
COC[C@H](C)NC(=O)c1ccc2c(c1)C1=C(CCC1)CN2c1ccc(C(F)(F)F)cc1 [Example T-426] | ≤ 1000 nM | ≤ 1000 nM | 
C[C@H](NS(=O)(=O)c1ccc2c(c1)c1nn(C)cc1c(=O)n2-c1ccc(OC(F)(F)F)cc1)c1ccccn1 [Example T-167] | 1000 to 5000 nM | 1000 to 5000 nM | 
C[C@H](NC(=O)c1cnc2c(c1)c1cocc1c(=O)n2-c1ccc(C(F)(F)F)cc1)c1ccccn1 [Example T-374] | ≤ 1000 nM | ≤ 1000 nM | 
N#CC1CN(C(=O)c2ccc3c(c2)c(=O)ccn3-c2ccc(C(F)(F)F)cc2)C1 [Example T-38] | 1000 to 5000 nM | 1000 to 5000 nM | 
C/C=C/C(=O)Nc1ccc2c(c1)c1nn(C)cc1c(=O)n2-c1ccc(C(F)(F)F)cc1 [Example T-239] | ≤ 1000 nM | ≤ 1000 nM | 
Cc1c(C)c2cc(C(=O)N[C@@H](C)c3cccc(N)n3)ccc2n(-c2ccc(C(F)(F)F)cc2)c1=O [Example T-431] | ≤ 1000 nM | ≤ 1000 nM | 
Cn1cc2c(=O)n(-c3ccc(C(F)(F)F)cc3)c3ccc(NS(C)(=O)=O)cc3c2n1 [Example T-190] | ≤ 1000 nM | ≤ 1000 nM | 
C[C@H](NC(=O)c1ccc2c(c1)c1scnc1c(=O)n2-c1ccc(C(F)(F)F)cc1)c1ccccn1 [Example T-331] | ≤ 1000 nM | ≤ 1000 nM | 
C[C@H](C(=O)Nc1ccc2c(c1)c1nn(C)cc1c(=O)n2-c1ccc(C(F)(F)F)cc1)c1ccccn1 [Example T-169] | 1000 to 5000 nM | 1000 to 5000 nM | 
CC#CC(=O)Nc1ccc2c(c1)c1nn(C)cc1c(=O)n2-c1ccc(C(F)(F)F)cc1 [Example T-238] | ≤ 1000 nM | ≤ 1000 nM | 

Now from value to compound, other results behind:

IC50 [2] | IC50 (YAP-TEAD) | Compound | further results
≤ 1000 nM | ≤ 1000 nM | Cc1cc(=O)n(-c2ccc(C(F)(F)F)cc2)c2ccc(C(=O)N[C@@H](C)c3cccc(N)n3)cc12 [Example T-413] | 
≤ 1000 nM | ≤ 1000 nM | CNS(=O)(=O)c1ccc2c(c1)c1nn(C)cc1c(=O)n2-c1ccc(C)cc1 [Example T-82] | 
≤ 1000 nM | ≤ 1000 nM | C[C@H](NC(=O)c1ccc2c(c1)c1c(c(=O)n2-c2ccc(C(F)(F)F)cc2)CCC1F)c1ccccn1 (some centres unmarked) [Example T-290] | 
≤ 1000 nM | ≤ 1000 nM | C[C@H](NC(=O)c1ccc2c(c1)c1nocc1c(=O)n2-c1ccc(C(F)(F)F)cc1)c1ccccn1 [Example T-395] | 
≤ 1000 nM | ≤ 1000 nM | CS(=O)(=O)Nc1ccc2c(c1)c1c(c(=O)n2-c2ccc(C(F)(F)F)cc2)CCC1 [Example T-432] | 
≤ 1000 nM | ≤ 1000 nM | C[C@H](NC(=O)c1ccc2c(c1)c1c(c(=O)n2-c2ccc(C(F)(F)F)nc2)CCCC1)c1ccccn1 [Example T-263] | 
≤ 1000 nM | ≤ 1000 nM | Cc1occ2c1c(=O)n(-c1ccc(C(F)(F)F)cc1)c1ncc(C(=O)N[C@@H](C)c3ccccn3)cc21 [Example T-376] | 
≤ 1000 nM | ≤ 1000 nM | C=CC(=O)Nc1ccc2c(c1)cc(C)c(=O)n2-c1ccc(C(F)(F)F)cc1 [Example T-412] | 
1000 to 5000 nM | 1000 to 5000 nM | Cn1cc2c(=O)n(-c3ccc(C(F)(F)F)cc3)c3ccc(C(=O)N[C@@H](c4ccccc4)c4ccccn4)cc3c2n1 [Example T-142] | 
≤ 1000 nM | ≤ 1000 nM | CNS(=O)(=O)c1ccc2c(c1)c1nn(C)cc1c(=O)n2-c1cccc(F)c1 [Example T-72] | 
